Data as given in patent publication US9193695B2, “1, 2, 4-triazolone derivative and use thereof as an antagonist on the arginine-vasopressin 1B receptor” (TAISHO PHARMACEUTICAL CO., LTD., priority 2010, dated 2015).
Counter-ions that a name gives are not always drawn.

Target: T1, Human V1b receptor (Homo sapiens, UniProt P47901)
T1 sequence (P47901 1-424): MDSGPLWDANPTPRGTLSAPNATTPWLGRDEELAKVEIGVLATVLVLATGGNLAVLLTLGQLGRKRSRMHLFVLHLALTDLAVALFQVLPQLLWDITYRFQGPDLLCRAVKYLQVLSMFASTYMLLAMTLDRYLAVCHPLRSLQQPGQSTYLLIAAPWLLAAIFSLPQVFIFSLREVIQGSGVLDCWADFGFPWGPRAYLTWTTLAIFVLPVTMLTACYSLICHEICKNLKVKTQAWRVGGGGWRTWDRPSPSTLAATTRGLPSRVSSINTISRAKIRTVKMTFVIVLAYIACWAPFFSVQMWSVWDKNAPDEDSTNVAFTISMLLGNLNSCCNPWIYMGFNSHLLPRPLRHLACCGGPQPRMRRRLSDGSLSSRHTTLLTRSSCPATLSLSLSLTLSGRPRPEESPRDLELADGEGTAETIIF
Assay: Binding test for V1b receptor ([3H]AVP displacement, crude membrane preparation)
Design: expressed in transfected cells; host or cells: 293FT cells (Invitrogen), transient expression; crude membrane preparation
Conditions: [3H]AVP 0.4 to 1 nmol/L; membranes of 293FT cells transiently expressing human V1b receptor; room temperature, 60 minutes
Procedure: Binding Test for V1b Receptor
Human V1b receptor was transiently expressed in 293FT cells (Invitrogen). The cells were collected and were homogenated in a 15 mmol/L tris-hydrochloric acid buffer (pH 7.4, containing 2 mmol/L magnesium chloride, 0.3 mmol/L ethylenediaminetetracetic acid, and 1 mmol/L glycol ether diaminetetraacetic acid). The resulting homogenate was centrifuged at 50,000×g at 4° C. for 20 minutes. The precipitate was resuspended in a 75 mmol/L tris-hydrochloric acid buffer (pH 7.4, containing 12.5 mmol/L magnesium chloride, 0.3 mmol/L ethylenediaminetetracetic acid, 1 mmol/L glycol ether diamine tetraacetic acid, and 250 mmol/L sucrose) to give a crude membrane preparation, which was stored at −80° C. until the binding test. In the binding test, the crude membrane preparation was diluted with a 50 mmol/L tris-hydrochloric acid buffer (pH 7.4, containing 10 mmol/L magnesium chloride and 0.1% bovine serum albumin), and test compound was serially diluted with DMSO. The diluted crude membrane preparation was incubated with each test compound (final concentration of 0.01 nmol/L to 1 μmol/L) and [^3H]AVP (final concentration: 0.4 to 1 nmol/L) at room temperature for 60 minutes. After the incubation, the mixture was suction filtered through a GF/C filter pretreated with 0.3% polyethyleneimine. The GF/C filter was dried, and a scintillator was added thereto. The radioactivity remaining on the filter was measured using TopCount (PerkinElmer Inc.). The radioactivity in the presence of 10 μmol/L of unlabeled AVP was defined as 0%, and the radioactivity in the absence of unlabeled AVP was defined as 100%. A dose-response curve was plotted from radioactivities in the presence of a test compound at various concentrations, and the 50% inhibitory concentration (IC50 value) of the compound was calculated.

SMILES	IC50 [µM]
CC(C)(C)NC(=O)Cn1c(-c2cccc(Cl)c2)nn(-c2ccc(CCN3C4CCC3COC4)cn2)c1=O [Ad-18, N-Tert-Butyl-2-[3-(3-chlorophenyl)-1-{5-[2-(3-oxa-8-azabicyclo[3.2.1]oct-8-yl)ethyl]pyridin-2-yl}-5-oxo-1,5-dihydro-4H-1,2,4-triazol-4-yl]acetamide]	0.0026
CC(C)NC(=O)Cn1c(-c2cccc(Cl)c2)nn(-c2ccc(CCN)cc2)c1=O [Ad-21, 2-[3-(3-Chlorophenyl)-1-[4-(2-aminoethyl)phenyl]-5-oxo-1,5-dihydro-4H-1,2,4-triazol-4-yl]-N-(propan-2-yl)acetamide]	0.365
COc1cccc(-c2nn(-c3ccc(CCN4C5CCC4COC5)cc3)c(=O)n2CC(=O)NC(C)C)c1 [Ba-3, 2-[3-(3-Methoxyphenyl)-1-{4-[2-(3-oxa-8-azabicyclo[3.2.1]oct-8-yl)ethyl]phenyl}-5-oxo-1,5-dihydro-4H-1,2,4-triazol-4-yl]-N-(propan-2-yl)acetamide]	0.0094
COc1cccc(-c2nn(-c3ccc(CCN4CCOCC4)cn3)c(=O)n2CC(=O)NC(C)(C)C)c1 [Bd-1, N-Tert-Butyl-2-[3-(3-methoxyphenyl)-1-{5-[2-(morpholin-4-yl)ethyl]pyridin-2-yl}-5-oxo-1,5-dihydro-4H-1,2,4-triazol-4-yl]acetamide]	0.0041
COc1cccc(-c2nn(-c3ccc(CCN4C5CCC4COC5)cn3)c(=O)n2CC(=O)NC(C)(C)C)c1 [Bd-2, N-Tert-Butyl-2-[3-(3-methoxyphenyl)-1-{5-[2-(3-oxa-8-azabicyclo[3.2.1]oct-8-yl)ethyl]pyridin-2-yl}-5-oxo-1,5-dihydro-4H-1,2,4-triazol-4-yl]acetamide]	0.0036
COc1cccc(-c2nn(-c3ccc(CC(C)N4C5CCC4COC5)cc3)c(=O)n2CC(=O)NC(C)(C)C)c1 (centres unmarked) [Bd-3, N-Tert-Butyl-2-[3-(3-methoxyphenyl)-1-{4-[2-(3-oxa-8-azabicyclo[3.2.1]oct-8-yl)propyl]phenyl}-5-oxo-1,5-dihydro-4H-1,2,4-triazol-4-yl]acetamide]	0.00021
COc1cccc(-c2nn(-c3ccc(CC(C)N4C5CCC4COC5)cn3)c(=O)n2CC(=O)NC(C)(C)C)c1 (centres unmarked) [Bd-4, N-Tert-Butyl-2-[3-(3-methoxyphenyl)-1-{5-[2-(3-oxa-8-azabicyclo[3.2.1]oct-8-yl)propyl]pyridin-2-yl}-5-oxo-1,5-dihydro-4H-1,2,4-triazol-4-yl]acetamide]	0.00044
COc1cc(-c2nn(-c3ccc(CCN4CCCCC4)cc3)c(=O)n2CC(=O)NC(C)C)ccc1F [Ca-1, 2-[3-(4-Fluoro-3-methoxyphenyl)-5-oxo-1-{4-[2-(piperidin-1-yl)ethyl]phenyl}-1,5-dihydro-4H-1,2,4-triazol-4-yl]-N-(propan-2-yl)acetamide]	0.026
COc1cc(-c2nn(-c3ccc(CCN4C5CCC4COC5)cc3)c(=O)n2CC(=O)NC(C)C)ccc1F [Ca-5, 2-[3-(4-Fluoro-3-methoxyphenyl)-1-{4-[2-(3-oxa-8-azabicyclo[3.2.1]oct-8-yl)ethyl]phenyl}-5-oxo-1,5-dihydro-4H-1,2,4-triazol-4-yl]-N-(propan-2-yl)acetamide]	0.0044
COc1cc(-c2nn(-c3ccc(CCN4CC5(CCOCC5)C4)cc3)c(=O)n2CC(=O)NC(C)C)ccc1F [Ca-6, 2-[3-(4-Fluoro-3-methoxyphenyl)-1-{4-[2-(7-oxa-2-azaspiro[3.5]non-2-yl)ethyl]phenyl}-5-oxo-1,5-dihydro-4H-1,2,4-triazol-4-yl]-N-(propan-2-yl)acetamide]	0.01 to 0.1
COc1cc(-c2nn(-c3ccc(CCN4CC=CCC4)cc3)c(=O)n2CC(=O)NC(C)C)ccc1F [Ca-7, 2-[1-{4-[2-(3,6-Dihydropyridin-1(2H)-yl)ethyl]phenyl}-3-(4-fluoro-3-methoxyphenyl)-5-oxo-1,5-dihydro-4H-1,2,4-triazol-4-yl]-N-(propan-2-yl)acetamide]	0.01 to 0.1
COc1cc(-c2nn(-c3ccc(CCN4CCSCC4)cc3)c(=O)n2CC(=O)NC(C)C)ccc1F [Ca-8, 2-[3-(4-Fluoro-3-methoxyphenyl)-5-oxo-1-{4-[2-(thiomorpholin-4-yl)ethyl]phenyl}-1,5-dihydro-4H-1,2,4-triazol-4-yl]-N-(propan-2-yl)acetamide]	< 0.01
COc1cc(-c2nn(-c3ccc(CCN4CCC(C)CC4)cc3)c(=O)n2CC(=O)NC(C)C)ccc1F [Ca-9, 2-[3-(4-Fluoro-3-methoxyphenyl)-1-{4-[2-(4-methylpiperidin-1-yl)ethyl]phenyl}-5-oxo-1,5-dihydro-4H-1,2,4-triazol-4-yl]-N-(propan-2-yl)acetamide]	0.01 to 0.1
COc1cc(-c2nn(-c3ccc(CCN4CCC(C#N)CC4)cc3)c(=O)n2CC(=O)NC(C)C)ccc1F [Ca-10, 2-[1-{4-[2-(4-Cyanopiperidin-1-yl)ethyl]phenyl}-3-(4-fluoro-3-methoxyphenyl)-5-oxo-1,5-dihydro-4H-1,2,4-triazol-4-yl]-N-(propan-2-yl)acetamide]	0.1 to 1
COc1cc(-c2nn(-c3ccc(CCN4CCCC(OC)C4)cc3)c(=O)n2CC(=O)NC(C)C)ccc1F (centres unmarked) [Ca-11, 2-[3-(4-Fluoro-3-methoxyphenyl)-1-{4-[2-(3-methoxypiperidin-1-yl)ethyl]phenyl}-5-oxo-1,5-dihydro-4H-1,2,4-triazol-4-yl]-N-(propan-2-yl)acetamide]	0.01 to 0.1
CCCC1CCN(CCc2ccc(-n3nc(-c4ccc(F)c(OC)c4)n(CC(=O)NC(C)C)c3=O)cc2)CC1 [Ca-12, 2-[3-(4-Fluoro-3-methoxyphenyl)-5-oxo-1-{4-[2-(4-propylpiperidin-1-yl)ethyl]phenyl}-1,5-dihydro-4H-1,2,4-triazol-4-yl]-N-(propan-2-1)acetamide]	0.1 to 1
COc1cc(-c2nn(-c3ccc(CCN4CCC(C(N)=O)CC4)cc3)c(=O)n2CC(=O)NC(C)C)ccc1F [Ca-13, 1-[2-(4-{3-(4-Fluoro-3-methoxyphenyl)-5-oxo-4-[2-oxo-2-(propan-2-ylamino)ethyl]-4,5-dihydro-1H-1,2,4-triazol-1-yl}phenyl)ethyl]piperidine 4-carboxamide]	0.1 to 1
COc1cc(-c2nn(-c3ccc(CCN4CCC(N(C)C)CC4)cc3)c(=O)n2CC(=O)NC(C)C)ccc1F [Ca-14, 2-[1-(4-{2-[4-(Dimethylamino)piperidin-1-yl]ethyl}phenyl)-3-(4-fluoro-3-methoxyphenyl)-5-oxo-1,5-dihydro-4H-1,2,4-triazol-4-yl]-N-(propan-2-yl)acetamide]	0.1 to 1
COc1cc(-c2nn(-c3ccc(CCN4CCC5CCCCC5C4)cc3)c(=O)n2CC(=O)NC(C)C)ccc1F (centres unmarked) [Ca-15, 2-[3-(4-Fluoro-3-methoxyphenyl)-1-{4-[2-(octahydroisoquinolin-2(1H)-yl)ethyl]phenyl}-5-oxo-1,5-dihydro-4H-1,2,4-triazol-4-yl]-N-(propan-2-yl)acetamide]	0.01 to 0.1
COc1cc(-c2nn(-c3ccc(CCN4CCC(F)CC4)cc3)c(=O)n2CC(=O)NC(C)C)ccc1F [Ca-16, 2-[3-(4-Fluoro-3-methoxyphenyl)-1-{4-[2-(4-fluoropiperidin-1-yl)ethyl]phenyl}-5-oxo-1,5-dihydro-4H-1,2,4-triazol-4-yl]-N-(propan-2-yl)acetamide trifluoroacetate]	0.01 to 0.1
COc1cc(-c2nn(-c3ccc(CCN4CCC(NC(C)=O)CC4)cc3)c(=O)n2CC(=O)NC(C)C)ccc1F [Ca-17, 2-[1-(4-{2-[4-(Acetylamino)piperidin-1-yl]ethyl}phenyl)-3-(4-fluoro-3-methoxyphenyl)-5-oxo-1,5-dihydro-4H-1,2,4-triazol-4-yl]-N-(propan-2-yl)acetamide]	0.1 to 1
COc1cc(-c2nn(-c3ccc(CCN4CCC(F)(F)CC4)cc3)c(=O)n2CC(=O)NC(C)C)ccc1F [Ca-18, 2-[1-{4-[2-(4,4-Difluoropiperidin-1-yl)ethyl]phenyl}-3-(4-fluoro-3-methoxyphenyl)-5-oxo-1,5-dihydro-4H-1,2,4-triazol-4-yl]-N-(propan-2-yl)acetamide trifluoroacetate]	0.01 to 0.1
COc1cc(-c2nn(-c3ccc(CCN4CCC(C(F)(F)F)CC4)cc3)c(=O)n2CC(=O)NC(C)C)ccc1F [Ca-19, 2-[3-(4-Fluoro-3-methoxyphenyl)-5-oxo-1-(4-{2-[4-(trifluoromethyl)piperidin-1-yl]ethyl}phenyl)-1,5-dihydro-4H-1,2,4-triazol-4-yl]-N-(propan-2-yl)acetamide trifluoroacetate]	0.1 to 1
